Tested on: mESC Bmi1-luciferase reporter, firefly/renilla ratio, 24 h
Test: compounds raising Bmi1 reporter signal – mouse embryonic stem cells, luciferase, cherry-pick, esBAF inhibitor project, dose response (AID 651717);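 note: luciferase knocked into Bmi1 locus with EF-1a renilla as cell number control; rising ratio signals esBAF inhibition which derepresses Bmi1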

| Structure (SMILES) | AC40 [µM] |
| --- | --- |
| COC(=O)c1ccc2c(C)c(C3(O)CCCCC3)[nH]c2c1 | 7.47 |
| CC(C)NC(=O)CCc1nnc(Cc2cccc(C(F)(F)F)c2)o1 | 15.3 |
| C/C(=N\OCc1ccc(C#N)cc1)c1ccc(S(=O)(=O)N(C)C)cc1 | 7.91 |
| COC(=O)c1ccc2nc(-c3cccc(Cl)c3)c(Cc3ccsc3)n2c1 | 7.98 |
| COc1ccc(-c2cc(C(=O)Nc3cccnc3)no2)cc1OC | 4.87 |
| COc1cccc2cc(C(=O)N3CCc4ccccc4C3)c(=O)oc12 | 26.9 |
| O=C(Nc1ccccn1)c1ccc(Cl)c(S(=O)(=O)N2CCCCCC2)c1 | 10.4 |
| COc1cc(/C=C/c2ccccc2)cc(OC)c1 | 2.93 |
| O=C(O)c1ccc(N/N=C/c2cccc3nccnc23)cc1 | 4.04 |
| COc1ccc(C(=O)N2CCc3ccccc32)cc1 | 5.97 |
| Cc1cccc(NC(=O)c2ccccn2)c1C | 3.69 |
| CCN1C(=O)C(=CC=CN(C)c2ccccc2)SC1=S | 0.466 |
| CNc1cncc(-c2cccc(OC)c2F)n1 | 1.24 |
| COC(=O)c1ccc(NC(=O)c2cc3sccc3n2C)cc1 | 6.75 |
| Cn1cccc1C(=O)OCc1ccc(C(C)(C)C)cc1 | 4.64 |
| Cn1c(/C(C#N)=C(\O)c2ccc(Cl)s2)nc2ccccc21 | 3.09 |
| Cc1cc(-c2nnc(-c3cccc(C(F)(F)F)c3)o2)no1 | 6.58 |
| CCNC(=O)O/N=C(\C)c1sc(-c2ccccc2)nc1C | 3.29 |
| COC(=O)c1c(-c2ccc(S(C)(=O)=O)cc2)sc2ccc(OC)cc12 | 0.954 |
| CC(=O)c1cccc(OCc2cc(C(=O)NCCC3=CCCCC3)no2)c1 | 1.23 |
| COC(=O)CN(C)C(=O)c1ccc2nc(Cc3cccc(Cl)c3)oc2c1 | 2.4 |
| Cc1cc(Cl)c(O)c(-n2nc3ccccc3n2)c1 | 5.74 |
| COc1ccc(S(=O)(=O)Nc2cc(C(=O)NC3CCCCCC3)ccc2N2CCOCC2)cc1 | 7.61 |
| Cc1ccc(NC(=O)Nc2ccc(F)c(Cl)c2)cc1 | 1.85 |
| CSc1ccc(/C=N/NC(=O)c2ccccc2Cl)cc1 | 6.47 |

| Structure (SMILES) | AC40 [µM] |
| --- | --- |
| Fc1cccc(Cl)c1/C=N/Nc1ccccn1 | 8.55 |
| NCC(=O)c1ccccc1 | 23 |
| CS(=O)(=O)c1ccccc1C(=O)Nc1ccc(-c2nc3ccccc3o2)cc1 | 4.29 |
| CCn1c2ccccc2c2cc(NC(=O)N3CCCCC3)ccc21 | 1.19 |
| COC(=O)C1CCc2c(ccc3c2CCCC3)C1=O (centres undefined) | 4.54 |
| Cn1cccc1-c1nc2ccc(NC(=O)c3cccs3)cc2[nH]1 | 11.7 |
| C(=N\N1CCN(c2ccccc2)CC1)/c1ccccc1 | 4.79 |
| Clc1ccc(-c2cnnc(-c3ccccn3)n2)cc1 | 1.79 |
| Fc1ccc(CSc2ccc(-c3cccs3)nn2)cc1 | 5.03 |
| CC(=O)NCCNc1nc2cc(-c3ccc(C)cc3)sc2c(=O)n1C | 14.3 |
| CS(=O)(=O)N1CCN(c2nc3ccccc3s2)CC1 | 1.24 |
| COc1ccc(-c2cc(C(=O)Nc3ccc(NC(C)=O)cc3)[nH]n2)c(C)c1 | 1.21 |
| Nc1cc2c(cc1Cl)-c1ccc(Cl)cc1C2 | 11.3 |
| COc1cc(Cl)ccc1OCc1cc(C(=O)N(C)Cc2cccc3cnccc23)no1 | 7.79 |
| CO[C@H]1CN(C)C(=O)c2cc(NC(=O)Nc3ccc4c(c3)OCO4)ccc2OC[C@H](C)NC[C@H]1C | 3.29 |
| Nc1nc(-c2cccc(F)c2)cs1 | 6.13 |
| Cc1ccc(NC(=O)c2ccc3c(=O)n4c(nc3c2)CCC4)cc1F | 0.945 |
| O=C(Nc1ccc(F)cc1F)NC1CCCCCCC1 | 5.14 |
| O=C(Nc1nc2c(s1)CCc1ccccc1-2)c1cccs1 | 0.9 |
| Cc1nc2c(sc3nc4c(cc32)COC(C)(C)C4)c(=O)n1Cc1ccccc1 | 1.18 |
| Cc1ccc(NC(=O)O/N=C/c2ccc(F)cc2)cc1 | 8.83 |
| Cc1c(C(=O)NCc2cccnc2)sc2nc(-c3ccccc3)cn12 | 30.8 |
| N#CCc1nc(CSc2nc3ccccc3s2)cs1 | 9.73 |
| Fc1ccc(Nc2nnc(-c3ccncc3)s2)cc1Cl | 4.42 |
| CCn1c(O)c(/C=C2\C=Nc3ccccc32)sc1=Nc1ccccc1 | 14.2 |

| Structure (SMILES) | AC40 [µM] |
| --- | --- |
| Cc1ccc(-c2ccc(CCC(=O)O)n2-c2cccc(O)c2)cc1 | 10.1 |
| Cc1cccc(-n2nnc(C(=O)Nc3ccc(F)cc3)c2N)c1 | 0.798 |
| NC(=O)c1ccccc1-c1nc(-c2ccccc2)no1 | 4.23 |
| COc1ccccc1Cc1c(-c2ccc(C)cc2)nc2ccc(Cl)cn12 | 1.18 |
| Cc1ccc(NC(=O)C(=O)Nc2ccc(C)cn2)nc1 | 0.497 |
| COc1ccc(-c2csc(C(O)c3ccc(F)cc3)n2)cc1 (centres undefined) | 1.54 |
| COc1ccc(NC(=O)CCC(=O)Nc2ccc3nc(N4CCOCC4)cc(C)c3c2)c(OC)c1 | 6.04 |
| COc1ccc(/C=C2/SC(=O)N(CCNC(=O)CC(NC(C)=O)c3ccccc3)C2=O)cc1 (centres undefined) | 10.2 |
| CCCC1CCC(c2nc(-c3cccnc3)no2)CC1 (centres undefined) | 2.04 |
| COc1ccc(C2=NN(C(=O)c3ccccc3C(=O)O)C(c3ccccc3O)C2)cc1 (centres undefined) | 6.57 |
| CCc1sc(C(=O)Nc2ccc3nc(C)sc3c2)cc1C | 4.74 |
| Cc1nc(C)c(-c2csc(Nc3ccc(Cl)cn3)n2)s1 | 8.77 |
| Nc1ccc(C#Cc2ccc3c(=O)c4ccccc4oc3c2)cc1 | 3.64 |
| Cc1cc(=O)oc2cc(NC(=O)c3cccc(F)c3)ccc12 | 1.82 |
| Cc1ccc(CNC(=O)C2CCC(=O)N(CCc3ccc(Cl)cc3)C2)cc1 (centres undefined) | 5.36 |
| Fc1ccc2cc(-c3ccsc3)ncc2c1 | 3.16 |
| COc1cc2ccccc2cc1C(=O)Nc1ccncc1 | 5.2 |
| Cc1cccc(-c2noc(Cc3ccc(Cl)cc3)n2)c1 | 5.96 |
| COc1ccccc1CNC(=O)C[C@H]1CC[C@H]2[C@@H](COC[C@@H](O)CN2C(=O)Nc2ccc(Cl)cc2)O1 | 1.05 |
| Cc1ccc(NC(=O)Cc2noc3ccccc23)cc1 | 2.47 |
| Nc1ccccc1/C=C/c1ccccc1N | 2.4 |
| COc1ccc(-n2nc(C(=O)NCC(=O)N3CCN(c4ccccc4)CC3)c3ccccc3c2=O)cc1OC | 7.98 |
| NCCNC(=O)c1c(NC(=O)c2ccccc2)sc2c1CCCC2 | 34.4 |
| COc1ccc(C(=O)N=c2sc3ccccc3n2C)cc1OC | 2.13 |
| O=C(Cc1ccccc1)Nc1ccc2c(c1)OC1(CCCC1)O2 | 3.73 |

| Structure (SMILES) | AC40 [µM] |
| --- | --- |
| C=CCn1c(-c2ccc(N)cc2)nc2ccccc21 | 0.806 |
| COc1ccc(-c2csc(Nc3cccc(C)n3)n2)cc1OC | 1.44 |
| CC1CCCC(C)N1CCCNC(=O)c1ccc2nc(N3CCCCC3)sc2c1 (centres undefined) | 9 |
| CN(CC(=O)Nc1ccc(Cl)c(C(F)(F)F)c1)C(=O)CCCNC(=O)c1ccc(Cl)cc1 | 16.8 |
| Cc1ccc(Nc2cccccc2=O)cc1 | 3.88 |
| O=C1C(=Cc2ccccn2)CCc2ccccc21 | 20.1 |
| CCCCCCCNC(=O)C1(CC2CC(c3ccccc3)=NO2)CCN(C(=O)OC(C)(C)C)CC1 (centres undefined) | 15.4 |
| O=C1NCCC/C1=N/Nc1cc(F)ccc1F | 2.6 |
| Cc1sc(NC(=O)C2CCCCC2C(=O)O)c(C(N)=O)c1-c1ccc(C(C)C)cc1 (centres undefined) | 6.81 |
| COc1ccc(C(=O)Nc2ccc(Cl)cn2)cc1Cl | 2.38 |
| CC(C)Cn1cnc2c(SCc3ccccc3)nc(N)nc21 | 8.9 |
| Cc1ccc(C(=O)NCCc2nnc(SCC(=O)Nc3nc(-c4ccccc4)cs3)n2C)cc1 | 17.2 |
| COc1ccc2[nH]c(=O)c(-c3nnn(-c4ccccc4)n3)cc2c1 | 11.6 |
| CN(CC(=O)Nc1ccccc1Br)C(=O)c1cc2c(s1)CCCCC2 | 2.75 |
| c1ccc2cc(C3CCCCC3)ncc2c1 | 4.49 |
| O=C(Cc1cccs1)Nc1nc2c(s1)CCCC2 | 1.66 |
| Cc1ccc(C(=O)Nc2ccc3c(c2)OCO3)cc1S(=O)(=O)N1CCCCC1 | 1.69 |
| CCOC(=O)C1=C(CSc2nc(-c3ccccc3)ccc2C#N)OC(N)=C(C#N)C1c1ccccc1 (centres undefined) | 12.4 |
| Cc1ccccc1NC(=O)c1ccc2c(c1)N(C)CCS2 | 3.39 |
| OC(c1cccc(F)c1)c1ncc(-c2ccc3ccccc3c2)[nH]1 (centres undefined) | 9.76 |
| COc1cc(/C=C/c2nc3ccccc3c(=O)[nH]2)ccc1OC(F)F | 1.6 |
| CN(C)S(=O)(=O)c1ccc(C(=O)Nc2ccc3c(c2)CCC3)cc1 | 4.91 |
| CCCCNc1ccc2c(c1)C1CC2CCN1C(=O)OCc1ccccc1 (centres undefined) | 4.73 |
| O=c1cc(-c2ccccc2Cl)oc2cc(O)cc(O)c12 | 12 |
| CC(NC(=O)c1cc(COc2ccc(-n3cncn3)cc2)on1)c1ccc(F)cc1 (centres undefined) | 5.4 |

| Structure (SMILES) | AC40 [µM] |
| --- | --- |
| Nc1ccc(C(=O)OCc2nc3ccccc3[nH]2)cc1 | 19.1 |
| N/C(=N\OC(=O)C1CCCCC1)c1ccc(Cl)cc1 | 6.24 |
| COc1ccc(C)cc1NCc1cc(=O)oc2cc(-c3ccccc3)c(O)cc12 | 32.4 |
| Cc1ccsc1CN(C)C(=O)C1CCC(=O)N(CCc2cccc(F)c2)C1 (centres undefined) | 5.77 |
| C(=Cc1cnnc2ccccc12)c1ccccc1 | 1.23 |
| Cc1cc2oc(=O)cc(CN3CCC(C)CC3)c2c(C)c1Cl | 4.55 |
| Cc1cccc(N/N=C/c2ccc(C)s2)c1 | 2.91 |
| Cc1csc(NC(=O)Cc2ccc(F)cc2)n1 | 7.58 |
| CC(Cc1cccs1)NC(=O)c1cccc(Cl)c1 (centres undefined) | 2.76 |
| O=C(Cc1ccccc1)N/N=C/c1ccccc1OCc1ccc(Cl)cc1 | 4.61 |
| COc1ccc(Cl)c(-c2cc(C(=O)Nc3ccc(F)cc3)[nH]n2)c1 | 2.11 |
| COc1ccc2c(c1)CC/C(=C/c1ccccn1)C2=O | 1.86 |
| O=C(Cc1ccccc1F)Nc1nc(-c2ccc(F)c(F)c2)cs1 | 9.65 |
| CNC(=O)c1ccc(-c2cc3onc(-c4ccccc4)c3c(=O)n2C)cc1 | 1.16 |
| Clc1ccc(-c2csc(N3CCSCC3)n2)cc1 | 5.65 |
| N/C(=N\OC(=O)Cc1cccs1)c1ccc(Cl)cc1 | 18.1 |
| COc1ccc(C(=O)Nc2ccc(C3CC3(Cl)Cl)cc2)cc1 (centres undefined) | 7.09 |
| COc1ccc(C2=Nc3ccccc3NC(=O)C2N(C(=O)c2cnc(C)cn2)c2ccc(N3CCOCC3)cc2)cc1 (centres undefined) | 21.8 |
| CSc1nnc(NC(=O)c2cc3ccccc3oc2=O)s1 | 5.97 |
| COc1ccc(OCc2cc(C(=O)N(C)C(C)c3ccon3)no2)c(Cl)c1 (centres undefined) | 23.4 |
| Cc1ccc(C(=O)NNC(=O)c2ccc3ccccc3c2)cc1 | 7.86 |
| COc1ccc(/C=N/Nc2nc(C)nc(N)n2)cc1 | 15.5 |
| COc1ccc(Cl)c(-c2cc(C(=O)Nc3ccccc3)[nH]n2)c1 | 0.423 |
| CC(=O)n1nc(-c2ccccc2)nc1NCc1ccc(N(C)C)cc1 | 3.41 |

— PubChem BioAssay AID651717 (Broad Institute, 2012)
